± gives the expanded uncertainty stated by the source.
Assays:
[1] = xn = mol fraction of the nth substance listed; conditions: 100 kPa, Liquid; for speed of sound: Frequency=3 MHz, Sing-around technique in a fixed-path interferometer; for mass density: Vibrating tube method
[2] = refractive index (Na D-line) (dimensionless); xn = mol fraction of the nth substance listed; conditions: 100 kPa, Liquid, Standard Abbe refractometry

CCCCN [1-butanamine] + CN(C)C=O
Conditions	mass density, [1] [kg/m3]	refractive index, [2]	speed of sound, [1] [m/s]
293.15 K, x2 = 0.0599	747.39 ± 1.8	1.40222 ± 0.0042	1277.7 ± 1.4
293.15 K, x2 = 0.1056	755.445 ± 1.8	1.40348 ± 0.0042	1285 ± 1.4
293.15 K, x2 = 0.1591	765.035 ± 1.9	1.40498 ± 0.0042	1293.8 ± 1.4
293.15 K, x2 = 0.201	–	1.40619 ± 0.0042	–
293.15 K, x2 = 0.2505	782.005 ± 1.9	1.4076 ± 0.0042	1309.6 ± 1.4
293.15 K, x2 = 0.3017	791.811 ± 1.9	1.40911 ± 0.0042	1318.9 ± 1.4
293.15 K, x2 = 0.3583	802.88 ± 2	1.41079 ± 0.0043	1329.6 ± 1.3
293.15 K, x2 = 0.3992	811.114 ± 2	1.412 ± 0.0043	1337.8 ± 1.3
293.15 K, x2 = 0.4401	–	1.41322 ± 0.0043	–
293.15 K, x2 = 0.5059	833.13 ± 2	1.41521 ± 0.0043	1359.6 ± 1.3
293.15 K, x2 = 0.5483	842.154 ± 2.1	–	1368.9 ± 1.3
293.15 K, x2 = 0.6043	–	1.41829 ± 0.0043	–
293.15 K, x2 = 0.6569	866.102 ± 2.1	1.41992 ± 0.0043	1393.7 ± 1.3
293.15 K, x2 = 0.6999	875.844 ± 2.1	1.42126 ± 0.0043	1404 ± 1.3
293.15 K, x2 = 0.7537	888.314 ± 2.2	1.42292 ± 0.0043	1416.7 ± 1.3
293.15 K, x2 = 0.8036	900.101 ± 2.2	1.42448 ± 0.0043	1429 ± 1.3
293.15 K, x2 = 0.8579	913.315 ± 2.2	1.42618 ± 0.0043	1442.3 ± 1.3
293.15 K, x2 = 0.9048	924.751 ± 2.3	1.42763 ± 0.0043	1453.7 ± 1.2
293.15 K, x2 = 0.9546	937.212 ± 2.3	1.42915 ± 0.0043	1465.6 ± 1.2
298.15 K, x2 = 0.0575	742.224 ± 1.8	1.39946 ± 0.0042	1255.4 ± 1.4
298.15 K, x2 = 0.1092	751.333 ± 1.8	1.40093 ± 0.0042	1263.9 ± 1.4
298.15 K, x2 = 0.1519	759.015 ± 1.9	1.40215 ± 0.0042	1271.1 ± 1.4
298.15 K, x2 = 0.2043	768.674 ± 1.9	1.40367 ± 0.0042	1280.1 ± 1.4
298.15 K, x2 = 0.2448	776.215 ± 1.9	1.40485 ± 0.0042	1287.4 ± 1.4
298.15 K, x2 = 0.309	788.51 ± 1.9	1.4068 ± 0.0042	1299.3 ± 1.4
298.15 K, x2 = 0.3558	797.705 ± 1.9	1.4082 ± 0.0042	1308.4 ± 1.3
298.15 K, x2 = 0.3986	806.285 ± 2	–	1317 ± 1.3
298.15 K, x2 = 0.4381	814.268 ± 2	–	1324.9 ± 1.3
298.15 K, x2 = 0.5028	827.736 ± 2	1.41274 ± 0.0043	1338.6 ± 1.3
298.15 K, x2 = 0.6005	848.795 ± 2.1	1.41578 ± 0.0043	1360.6 ± 1.3
298.15 K, x2 = 0.6608	–	1.41769 ± 0.0043	–
298.15 K, x2 = 0.6934	869.781 ± 2.1	1.41871 ± 0.0043	1382.5 ± 1.3
298.15 K, x2 = 0.7572	884.516 ± 2.2	1.42076 ± 0.0043	1398 ± 1.3
298.15 K, x2 = 0.8056	895.958 ± 2.2	1.4223 ± 0.0043	1410 ± 1.3
298.15 K, x2 = 0.8546	–	1.42383 ± 0.0043	–
298.15 K, x2 = 0.9076	920.837 ± 2.2	1.42553 ± 0.0043	1435.1 ± 1.2
298.15 K, x2 = 0.9553	932.723 ± 2.3	1.42705 ± 0.0043	1446.6 ± 1.2
303.15 K, x2 = 0.0505	736.213 ± 1.8	1.39644 ± 0.0042	1233 ± 1.4
303.15 K, x2 = 0.1477	753.539 ± 1.8	1.39927 ± 0.0042	1249.4 ± 1.4
303.15 K, x2 = 0.2019	763.466 ± 1.9	1.40087 ± 0.0042	1259 ± 1.4
303.15 K, x2 = 0.241	770.708 ± 1.9	1.40209 ± 0.0042	1266 ± 1.4
303.15 K, x2 = 0.3024	782.423 ± 1.9	1.40392 ± 0.0042	1277.5 ± 1.4
303.15 K, x2 = 0.3558	792.882 ± 1.9	1.40552 ± 0.0042	1287.8 ± 1.3
303.15 K, x2 = 0.3992	–	1.40686 ± 0.0042	–
303.15 K, x2 = 0.4358	808.96 ± 2	1.40802 ± 0.0042	1304.1 ± 1.3
303.15 K, x2 = 0.5114	824.673 ± 2	1.41041 ± 0.0042	1320.3 ± 1.3
303.15 K, x2 = 0.5281	828.281 ± 2	1.41094 ± 0.0043	1324 ± 1.3
303.15 K, x2 = 0.6056	845.104 ± 2.1	1.41337 ± 0.0043	1341.6 ± 1.3
303.15 K, x2 = 0.6574	–	1.41502 ± 0.0043	–
303.15 K, x2 = 0.696	865.473 ± 2.1	1.41625 ± 0.0043	1363.2 ± 1.3
303.15 K, x2 = 0.7558	879.286 ± 2.1	1.4182 ± 0.0043	1377.7 ± 1.3
303.15 K, x2 = 0.8006	889.962 ± 2.2	1.41964 ± 0.0043	1389 ± 1.3
303.15 K, x2 = 0.8544	902.88 ± 2.2	1.42138 ± 0.0043	1402.3 ± 1.2
303.15 K, x2 = 0.8998	914.033 ± 2.2	1.42282 ± 0.0043	1413.7 ± 1.2
303.15 K, x2 = 0.9466	925.732 ± 2.3	1.42431 ± 0.0043	1425.2 ± 1.2
